{"source": "patent US20230165242A1", "about": "“RODENTICIDAL BAIT AND METHOD OF CONTROLLING TARGET HARMFUL RODENTS” (priority 2020, published 2023)", "key": {"[1]": {"conditions": "in vivo; cited from earlier work"}, "[2]": {"tested_on": "warfarin-sensitive male OFA-Sprague-Dawley rats", "assay": "Prothrombin level, Quick's time (bromadiolone / cholecalciferol gavage)", "format": "in vivo, rat", "description": "Warfarin-sensitive male OFA-Sprague-Dawley rats (Charles River, L′Arbresles, France) are fed by gavage for 3 consecutive days with a gavage solution containing bromadiolone (LIPHATECH, France) and cholecalciferol (Sigma-Aldrich, France) in a solvent consisting of 95% (v/v) of oil and 5% (v/v) of DMSO. During this period of gavage, the rats are fed with a conventional solid feed and water in unlimited amounts. The concentrations of bromadiolone and cholecalciferol in the gavage solution are 0.1 g/kg (100 ppm) and 7.5 g/kg (7500 ppm) respectively. Each rat receives daily a volume of gavage solution calculated to correspond to 1 mL of gavage solution per kilogram of body weight. The OFA-Sprague-Dawley rats in two control groups are fed by gavage in the same conditions with gavage solutions containing bromadiolone (alone) at a concentration of 100 ppm or cholecalciferol (alone) at a concentration of 7500 ppm, respectively. 24 hours after the last gavage, a volume of blood is taken from each rat by intracardiac puncture and placed in a specimen tube containing sodium citrate. The animals are euthanized after puncture and the plasma is prepared by centrifugation. Quick's time (or clotting time) is evaluated on the plasma supplemented with sodium citrate, then decalcified and recalcified in the presence of calcium thromboplastin. Quick's time is evaluated by means of an optical device for clotting analysis (Option 2plus, Bio Mèrieux®). The results are presented [FIG. 2]. The average Quick's time measured on the plasma from the rats fed by gavage with bromadiolone (bar “B”) is 12.4 seconds (±1.8), the average Quick's time measured on the plasma from the rats fed by gavage with cholecalciferol (bar “C”) is 12.4 seconds (±0.9) and the average Quick's time measured on the plasma from the rats fed by gavage with the composition comprising bromadiolone and cholecalciferol (bar “D”) is 14.1 seconds (±2.7). The differences in values of Quick's time measured between the three groups of rats are not significant. The rats in the group of rats that received the combination of bromadiolone and cholecalciferol coagulate in the same way as the rats in the group of rats that received the gavage solution containing bromadiolone on the one hand and the rats in the group of rats that received the gavage solution containing cholecalciferol on the other hand. Quick's time for rats treated with a control solution formed from oil (95%, v/v) and DMSO (5%, v/v) is (bar “A”) 12.8 seconds (±2.3). Neither the gavage solution containing bromadiolone in combination with cholecalciferol, nor the gavage solution containing bromadiolone alone, nor the gavage solution containing cholecalciferol induces an increase of Quick's time relative to the control. […]"}, "[3]": {"tested_on": "warfarin-sensitive male OFA-Sprague-Dawley rats", "assay": "Synergy of bromadiolone and cholecalciferol, gavage, survival", "format": "in vivo, rat", "conditions": "gavage 5 consecutive days; bromadiolone 0.1 mg/kg alone, cholecalciferol 7.5 mg/kg alone, or both combined; after 20 days of observation", "description": "A group of 10 warfarin-sensitive male OFA-Sprague-Dawley rats (Charles River, L′Arbresles, France), aged 10 weeks and with a body weight between 160 and 180 g, are fed by gavage for 5 consecutive days with a gavage solution containing bromadiolone (LIPHATECH, France) and cholecalciferol (Sigma-Aldrich, France) in a solvent consisting of 95% (v/v) of oil and 5% (v/v) of DMSO. During this period of gavage, the rats are fed with a conventional solid feed and water in unlimited amounts. The rats are fed by gavage with a volume of this gavage solution so as to administer an amount of bromadiolone corresponding to 0.1 mg of bromadiolone per kilogram of body weight of the rat fed by gavage and an amount of cholecalciferol corresponding to 7.5 mg of cholecalciferol per kilogram of body weight of the rat fed by gavage. The rats in two control groups, each consisting of 10 male OFA-Sprague-Dawley rats, are fed by gavage in the same conditions with gavage solutions containing, respectively, bromadiolone alone so as to administer an amount of bromadiolone corresponding to 0.1 mg of bromadiolone per kilogram of body weight of the rat fed by gavage and cholecalciferol alone so as to administer an amount of cholecalciferol corresponding to 7.5 mg of cholecalciferol per kilogram of body weight of the rat fed by gavage. […]"}, "[4]": {"tested_on": "warfarin-sensitive male OFA-Sprague-Dawley rats", "assay": "Prothrombin level, Quick's time (difethialone gavage)", "format": "in vivo, rat", "conditions": "difethialone solution 100 ppm, 1 mL/kg", "experimental": "Nine warfarin-sensitive male OFA-Sprague-Dawley rats (Charles River, L′Arbresles, France) are fed by gavage for 3 consecutive days with difethialone (LIPHATECH, France) in solution in a mixture consisting of 90% (v/v) of oil and 10% (v/v) of DMSO. The concentration of difethialone in the gavage solution is 0.1 g/kg (100 ppm). Each rat receives daily a volume of gavage solution calculated to correspond to 1 mL of gavage solution per kilogram of its body weight […]. 24 hours after the last gavage, a volume of blood is taken from each rat by intracardiac puncture and placed in a specimen tube containing sodium citrate. The animals are euthanized after puncture and the plasma is prepared by centrifugation. […] Quick's time (or clotting time) is evaluated on the plasma supplemented with sodium citrate, then decalcified and recalcified in the presence of calcium thromboplastin. Quick's time is evaluated by means of an optical device for clotting analysis (Option 2plus, Bio Mèrieux®). The average Quick's time measured on the plasma from the rats fed by gavage with difethialone is 23.4 seconds (±6.1). For comparison, the average Quick's time of control rats fed by gavage with the solution without difethialone is 17.5 seconds (±2.1). The difference in values of Quick's time of the rats fed by gavage with the difethialone solution and with the control solution without difethialone is not significant."}, "[5]": {"tested_on": "warfarin-sensitive male OFA-Sprague-Dawley rats", "assay": "Synergy of difethialone and cholecalciferol on warfarin-sensitive rats, gavage, survival", "format": "in vivo, rat", "conditions": "gavage once a day for 3 days; difethialone 125 μg/kg alone or combined with cholecalciferol 7.5 mg/kg; 20 days of observation", "description": "A group of warfarin-sensitive male OFA-Sprague-Dawley rats (Charles River, L′Arbresles, France), aged 10 weeks and with a body weight between 160 and 180 g, are fed by gavage once a day for 3 consecutive days with a gavage solution containing difethialone (LIPHATECH, France) and cholecalciferol (Sigma-Aldrich, France) in a solvent consisting of 95% (v/v) of oil and 5% (v/v) of DMSO. During this period of gavage, the rats are fed with a conventional solid feed and water in unlimited amounts. The amounts of difethialone and cholecalciferol administered are 125 μg per kilogram of body weight of the rat fed by gavage and 7.5 mg per kilogram of body weight of the rat fed by gavage, respectively. The rats in two control groups, each consisting of OFA-Sprague-Dawley rats, are fed by gavage in the same conditions with gavage solutions containing difethialone alone (125 μg/kg) or cholecalciferol alone (7.5 mg/kg), respectively. The percentage of rats surviving gavage is recorded daily, for 20 days counting from the first day of gavage. The results presented [FIG. 3] show the variation of the percentage of rodents surviving (in %) as a function of time (t, in days) following the first day of gavage. The rats fed by gavage with the difethialone solution (♦) have 100% survival after 20 days of observation. […]"}, "[6]": {"tested_on": "Female Sprague-Dawley rats that are homozygotic carriers of the Y139F mutation in the Vkorc1 gene", "assay": "Synergy of difethialone and cholecalciferol on warfarin-resistant female Sprague-Dawley Y139F rats", "format": "in vivo, rat", "conditions": "gavage once a day for 3 days; difethialone 0.125 mg/kg alone, cholecalciferol 7.5 mg/kg alone, or both combined; 22 days of observation", "description": "Female Sprague-Dawley rats that are homozygotic carriers of the Y139F mutation in the Vkorc1 gene, aged 10 weeks, are acclimatized for 5 days in the presence of a conventional solid feed and water in unlimited amounts. These female Sprague-Dawley Y139F rats are fed by gavage once a day for 3 consecutive days with a gavage solution containing difethialone (LIPHATECH, France) and cholecalciferol (Sigma-Aldrich, France) in a solvent consisting of 95% (v/v) of oil and 5% (v/v) of DMSO. During this period of gavage, the rats are fed with a conventional solid feed and water in unlimited amounts. The amounts of difethialone and cholecalciferol administered are 0.125 mg per kilogram of body weight of the rat fed by gavage and 7.5 mg per kilogram of body weight of the rat fed by gavage, respectively. The rats in two control groups, each consisting of OFA-Sprague-Dawley […] rats, are fed by gavage in the same conditions with gavage solutions containing, respectively, difethialone alone so as to administer an amount of difethialone corresponding to 0.125 mg per kilogram of body weight of the rat fed by gavage and cholecalciferol alone so as to administer an amount of cholecalciferol corresponding to 7.5 mg per kilogram of body weight of the rat fed by gavage. The percentage of rats surviving gavage is noted daily for 21 days counting from the first day of gavage. […]"}, "[7]": {"tested_on": "male Sprague-Dawley rats that have undergone introgression, homozygotic carriers of the Y139F mutation in the Vkorc1 gene", "assay": "Dose/rodenticidal response effect of difethialone on warfarin-resistant male Y139F rats", "format": "in vivo, rat", "conditions": "for Mortality, %: gavage, 21 days", "experimental": "A gavage solution containing difethialone (LIPHATECH, France) in a solvent consisting of 95% (v/v) of oil and 5% (v/v) of DMSO is administered once a day for 3 consecutive days to male Sprague-Dawley rats that have undergone introgression, which are homozygotic carriers of the Y139F mutation in the Vkorc1 gene. During this period of gavage, the rats are fed with a conventional solid feed and water in unlimited amounts. The doses of difethialone administered to the Sprague-Dawley rats that have undergone introgression, given in Table 9 hereunder, are expressed in micrograms of difethialone administered per kilogram of body weight of the gavage-fed rodent.\nThe percentage of rats surviving gavage is noted daily for 21 days counting from the first day of gavage. 100% of the Sprague-Dawley rats that had undergone introgression survive gavage for 3 days with 0.125 mg of difethialone per kilogram of body weight per day."}, "[8]": {"tested_on": "warfarin-sensitive male OFA-Sprague-Dawley rats", "assay": "Dose/rodenticidal response effect of difethialone on warfarin-sensitive rats", "format": "in vivo, rat", "conditions": "gavage, 21 days", "experimental": "A gavage solution containing difethialone (LIPHATECH, France) in a solvent consisting of 95% (v/v) of oil and 5% (v/v) of DMSO is administered once a day for 3 consecutive days to warfarin-sensitive male OFA-Sprague-Dawley rats (Charles River, L′Arbresles, France), aged 10 weeks and with a body weight between 160 and 180 g. During this period of gavage, the rats are fed with a conventional solid feed and water in unlimited amounts. The doses of difethialone administered to the OFA-Sprague-Dawley rats, given in Table 6 hereunder, are expressed in micrograms of difethialone administered per kilogram of body weight of the gavage-fed rodent.\nThe percentage of rats surviving gavage is recorded daily for 21 days counting from the first day of gavage."}, "[9]": {"conditions": "dose 100 μg/kg once a day for 3 days"}, "[10]": {"conditions": "dose 500 μg/kg once a day for 3 days"}}}
{"smiles": "C=C1/C(=C\\C=C2/CCC[C@]3(C)[C@@H]([C@H](C)CCCC(C)(C)O)CC[C@@H]23)C[C@@H](O)C[C@@H]1O", "note": "[Calcitriol, 1,25-dihydroxycholecalciferol]", "values": [{"measurement": "half-life in the body", "setting": "[1]", "result": "~5", "unit": "h"}]}
{"smiles": "O=c1oc2ccccc2c(O)c1C(CC(O)c1ccc(-c2ccc(Br)cc2)cc1)c1ccccc1", "note": "(stereo not shown) [bromadiolone, 3-[3-(4′-bromo[1,1′-biphenyl]-4-yl)-3-hydroxy-1-phenylpropyl]-4-hydroxy-2H-1-benzopyran-2-one]", "values": [{"measurement": "anticoagulant effect (increase of Quick's time relative to the control)", "setting": "[2]; 3 daily gavages, bromadiolone 100 ppm and/or cholecalciferol 7500 ppm solution, 1 mL/kg", "result": "not anticoagulants"}, {"measurement": "average Quick's time (clotting time)", "setting": "[2]; plasma 24 hours after last of 3 daily gavages, 1 mL/kg of solution with bromadiolone 100 ppm and/or cholecalciferol 7500 ppm", "result": 12.4, "unit": "s"}, {"measurement": "percentage of rats surviving", "setting": "[3]", "result": 100, "unit": "%"}]}
{"smiles": "O=c1sc2ccccc2c(O)c1C1CC(c2ccc(-c3ccc(Br)cc3)cc2)Cc2ccccc21", "note": "(stereo not shown) [difethialone, 3-(4′bromobiphenyl-4-yl)-1-(4-hydroxythiocoumarin-3-yl)-1,2,3,4-tetrahydronaphthalene]", "values": [{"measurement": "anticoagulant effect (increase in Quick's time relative to the control)", "setting": "[4]; 3 daily gavages", "result": "not anticoagulating"}, {"measurement": "haemorrhagic sign", "setting": "[4]; 3 daily gavages", "result": "No haemorrhagic sign"}, {"measurement": "average Quick's time (clotting time)", "setting": "[4]; plasma 24 hours after last of 3 daily gavages", "result": 23.4, "unit": "s"}, {"measurement": "percentage of rats surviving", "setting": "[5]", "result": 100, "unit": "%"}, {"measurement": "percentage of rats surviving", "setting": "[6]", "result": 100, "unit": "%"}, {"measurement": "Mortality, %", "setting": "[7]; [9]", "result": 0, "unit": "%"}, {"measurement": "Mortality, %", "setting": "[7]; dose 125 μg/kg once a day for 3 days", "result": 0, "unit": "%"}, {"measurement": "Mortality, %", "setting": "[7]; dose 250 μg/kg once a day for 3 days", "result": 100, "unit": "%"}, {"measurement": "Mortality, %", "setting": "[7]; [10]", "result": 100, "unit": "%"}, {"measurement": "rats surviving gavage", "setting": "[7]; gavage for 3 days with 0.125 mg of difethialone per kilogram of body weight per day", "result": 100, "unit": "%"}, {"measurement": "Mortality, %", "setting": "[8]; dose 50 μg/kg once a day for 3 days", "result": 0, "unit": "%"}, {"measurement": "Mortality, %", "setting": "[8]; [9]", "result": 0, "unit": "%"}, {"measurement": "Mortality, %", "setting": "[8]; dose 150 μg/kg once a day for 3 days", "result": 40, "unit": "%"}, {"measurement": "Mortality, %", "setting": "[8]; dose 200 μg/kg once a day for 3 days", "result": 100, "unit": "%"}, {"measurement": "Mortality, %", "setting": "[8]; [10]", "result": 100, "unit": "%"}]}
